{"source": "patent US5208260A", "about": "“Vinyl Glycine derivatives for memory and learning enhancement or treatment of a cognitive disorder” (priority 1990, dated 1993)", "key": {"[1]": {"molecular_target": "T1, NMDA receptor (Rattus norvegicus, UniProt P35439)", "T1 construct": "treated rat SPM that had been extensively washed; from tissue; host or cells: rat synaptic plasma membranes, Triton-treated and extensively washed", "assay": "Modulation of [3H]TCP binding, Triton-treated, extensively washed rat SPM (functional analysis, agonist/antagonist character)", "type": "biochemical", "details": "1 h, 5.0 nM [3H]TCP, 25° C., 60 min, pH 7.4, % of maximal glycine stimulation, read-out: AG/ANTAG [3H]TCP % STIM", "protocol": "(§1) [^3 H]Glycine binding was performed using Triton ×-100 washed synaptic plasma membranes (SPM) prepared from rat forebrain (30-45 day old, male Sprague Dawley; Sasco, St. Charles Mo.). The assay was initiated by the addition of 0.2-0.4 mg of SPM to an incubation containing 10 nM [^3 H]glycine (43.5 Ci/mmole; New England Nuclear, Boston Mass.), and various concentrations of the appropriate test compounds in a total volume of 1 ml, with all additions made in […] Tris/acetate, pH 7.4. Following a 10 min incubation at 2° C. the bound radioactivity was separated from the free by either centrifugation (12000 g for 25 min at 4° C.) or vacuum filtration through Whatman GF/B filters using a Brandel MB-18 Harvester. The Kd and Bmax values for [^3 H]glycine were similar using either separation technique. The radioactivity associated with the SPM was quantitated using liquid scintillation spectrometry. Ki values for the inhibition of [ ^3 H]glycine binding were determined using logit-log analysis, with nonspecific binding determined using 100 μM glycine. Modulation of [^3 H]TCP binding was performed using Triton ×-100 (0.04% v/v) treated rat SPM that had been extensively washed. Assay incubations were at 25° C. for 60 min and contained 5.0 nM [^3 H]TCP, and various concentrations of the test compound in 5 mM Tris/HCl, pH 7.4. The assay was stopped by rapid filtration, using a Brandel MB-48 Harvester, thru Whatman GF/B filters treated with 0.05% polyethylenimine and the samples washed four times with 2.0 mls cold buffer. Radioactivity associated with the filter was determined by liquid scintillation spectrometry as described above. Nonspecific binding was defined using 60 μM PCP.\n*The stimulation of [^3 H]TCP binding (% STIM) was expressed as a […]"}, "[2]": {"molecular_target": "T2, strychnine-insensitive Glycine receptor (Rattus norvegicus, UniProt P35439)", "T2 construct": "synaptic plasma membranes (SPM) prepared from rat forebrain; from tissue; host or cells: rat forebrain synaptic plasma membranes, male Sprague Dawley, 30-45 days old (animals from Sasco, St. Charles Mo.)", "assay": "[3H]Glycine binding inhibition, Triton-washed rat forebrain synaptic plasma membranes (SPM)", "details": "inhibition of 10 nM [3H]glycine binding, pH 7.4, 10 min at 2° C., nonspecific: 100 μM glycine, read-out: AFFINITY [3H]GLYCINE (Ki)", "protocol": "as §1"}, "[3]": {"test_system": "L-aspartate aminotransferase enzyme", "details": "R. R. Rando, Nature, 250, 587-588 (1974); cited from earlier work"}, "[4]": {"details": "following milacemide administration; cited from earlier work"}, "[5]": {"test_system": "human subjects", "details": "B. Saletu et al (1986); cited from earlier work"}, "[6]": {"test_system": "strychnine-insensitive glycine receptor", "details": "structure-activity relationships, literature; cited from earlier work"}, "[7]": {"test_system": "neurons", "details": "J. W. Olney (1969); J. W. Olney et al. (1971); cited from earlier work"}, "[8]": {"test_system": "bacterial methionine-γ-lyase", "details": "M. Johnson et al., Biochemistry, 20, 4325-4333 (1981); cited from earlier work"}}, "data": [{"smiles": "N[C@H](/C=C/CCO)C(=O)O", "note": "(stereo in doubt) [Compound 7, trans-D-2-amino--6-hydroxy-hex-3-enoic acid]", "values": [{"measurement": "Emax at 6 µM", "setting": "[1]; CONC 6 (μ)", "value": 67, "unit": "%"}, {"measurement": "Ki", "setting": "[2]", "value": 0.28, "unit": "µM"}]}, {"smiles": "CCC/C=C/[C@H](N)C(=O)O", "note": "(stereo in doubt) [Compound 3, trans-L-2-amino-hept-3-enoic acid]", "values": [{"measurement": "Emax at 12 µM", "setting": "[1]; CONC 12 (μ)", "value": 66, "unit": "%"}, {"measurement": "Ki", "setting": "[2]", "value": 4.9, "unit": "µM"}]}, {"smiles": "CO/C=C/[C@H](N)C(=O)O", "note": "(stereo in doubt) [L-2-amino-4-methoxy-trans-3-butenoic acid]", "values": [{"measurement": "inhibition of L-aspartate aminotransferase", "setting": "[3]", "value": "irreversible inhibitor"}]}, {"smiles": "CCCCCNCC(N)=O", "note": "[milacemide]", "values": [{"measurement": "brain glycine content", "setting": "[4]", "value": "increase in brain glycine content"}, {"measurement": "memory-enhancing capabilities", "setting": "[5]", "value": "memory-enhancing capabilities"}]}, {"smiles": "C[C@@H](N)C(=O)O", "note": "[D-alanine]", "values": [{"measurement": "affinity at strychnine-insensitive glycine receptor (in words)", "setting": "[6]", "value": "highest affinities"}]}, {"smiles": "N[C@@H](CC(=O)O)C(=O)O", "note": "[aspartic, aspartic acid]", "values": [{"measurement": "excitatory and excitotoxic properties", "setting": "[7]", "value": "both excitatory and excitotoxic properties"}]}, {"smiles": "CCCCCC/C=C/[C@H](N)C(=O)O", "note": "(stereo in doubt) [Compound 5, trans-L-2-amino-dec-3-enoic acid]", "values": [{"measurement": "Emax at 30 µM", "setting": "[1]; CONC 30 (μ)", "value": 78, "unit": "%"}, {"measurement": "Ki", "setting": "[2]", "value": 0.95, "unit": "µM"}]}, {"smiles": "C/C=C/[C@H](N)C(=O)O", "note": "(stereo in doubt) [Compound 1, trans-L-2-amino-pent-3-enoic acid]", "values": [{"measurement": "Emax at 40 µM", "setting": "[1]; CONC 40 (μ)", "value": 51, "unit": "%"}, {"measurement": "inhibition of bacterial methionine-γ-lyase", "setting": "[8]", "value": "inhibition of bacterial methionine-γ-lyase"}, {"measurement": "Ki", "setting": "[2]", "value": 7.2, "unit": "µM"}]}, {"smiles": "N[C@@H](CCC(=O)O)C(=O)O", "note": "[glutamic acid]", "values": [{"measurement": "excitatory and excitotoxic properties", "setting": "[7]", "value": "both excitatory and excitotoxic properties"}]}, {"smiles": "C/C=C/[C@@H](N)C(=O)O", "note": "(stereo in doubt) [Compound 2, trans-D-2-amino-pent-3-enoic acid]", "values": [{"measurement": "Ki", "setting": "[2]", "value": 4.8, "unit": "µM"}]}, {"smiles": "CCCCCC/C=C/[C@@H](N)C(=O)O", "note": "(stereo in doubt) [Compound 6, trans-D-2-amino-dec-3-enoic acid]", "values": [{"measurement": "Emax at 100 µM", "setting": "[1]; CONC 100 (μ)", "value": 48, "unit": "%"}, {"measurement": "Ki", "setting": "[2]", "value": 55, "unit": "µM"}]}, {"smiles": "N[C@H](CO)C(=O)O", "note": "[D-serine]", "values": [{"measurement": "affinity at strychnine-insensitive glycine receptor (in words)", "setting": "[6]", "value": "highest affinities"}]}, {"smiles": "CCC/C=C/[C@@H](N)C(=O)O", "note": "(stereo in doubt) [Compound 4, trans-D-2-amino-hept-3-enoic acid]", "values": [{"measurement": "Ki", "setting": "[2]", "value": 1.8, "unit": "µM"}]}, {"smiles": "N[C@@H](/C=C/CCO)C(=O)O", "note": "(stereo in doubt) [Compound 8, trans-L-2-amino-6-hydroxy-hex-3-enoic acid]", "values": [{"measurement": "Ki", "setting": "[2]", "value": 0.77, "unit": "µM"}]}]}
